Here are results for two compounds from PMC13110364, “Design, Synthesis, and Biological Evaluation of Novel Triazine‐Based Dual Histone Deacetylase/phosphatidylinositol 3‐kinase Inhibitors for Breast Cancer Therapy” (Chemmedchem, 2026).

For assay [1], the system named is MDA‐MB‐231 triple‐negative breast cancer cell line. Put plainly: MTS cell viability assay, MDA-MB-231. The note with it: MDA‐MB‐231 cells, 72 h treatment. The class given is cell-based. How it is done:
The cell viability effects of compounds 5a–5f were assessed in LY2, JIMT1, and MDA‐MB‐231 breast cancer cell lines using the 3‐(4,5‐dimethylthiazol‐2‐yl)‐5‐(3‐carboxymethoxyphenyl)‐2‐(4‐sulfophenyl)‐2H‐tetrazolium (MTS) assay. The MTS assay measures metabolic viability and serves as a first‐pass screen.
JIMT‐1 (DSMZ ACC 589) and MDA‐MB‐231 (ATCC HTB‐26) breast cancer cell lines were maintained in Dulbecco's Modified Eagle Medium (DMEM) High Glucose with L‐glutamine (D5796, Sigma) supplemented with 10% fetal calf serum. MCF7‐derivative LY2 breast cancer cells were previously described (REF: PMID: 33420368). LY2 cells were cultured in phenol red‐free MEM (PRF‐MEM; 51 200‐046, Gibco) supplemented with 10% charcoal dextran‐stripped fetal calf serum (CDS‐FCS; F6765, Merck), 2 mmol/L L‐glutamine (G7513, Merck), and 10^−8 mol/L 4‐hydroxytamoxifen (4‐OHT; H7904, Merck). All cell lines were maintained at 37°C in a humidified incubator with 5% CO2 and regularly authenticated and tested for mycoplasma.
Cell viability was evaluated in response to increasing concentrations of 5a‐5f (0.3, 1, 3, 10, and 30 μM) or vehicle control (0.1% DMSO). LY2, JIMT1, and MDA‐MB‐231 cells were seeded at a density of 2,500 cells per well in 96‐well plates with a total volume of 100 μL per well. Prior to treatment, cells were serum‐deprived for 24 h. Following serum depletion, cells were treated in complete growth medium for 72 h. Cell viability was assessed using the MTS assay (G1111, Promega) according to the manufacturer's instructions. Absorbance was measured at 495 nm using a BioTek Synergy HTX Multi‐Mode Microplate Reader (Agilent). Results were normalized to the vehicle control (DMSO), and the half‐maximal inhibitory concentration (IC50) of the inhibitors was determined by nonlinear regression (curve fit) using a four‐parameter variable slope model.
(Tetrazolium assays rely on reduction of a dye to a coloured formazan, in cell work by metabolically active cells.)

A further assay has as its target HDAC4 (Homo sapiens, UniProt P56524). Put plainly: Selectivity profile, single dose 0.5 µM, HDAC4. In kind it is biochemical. To be noted: remaining enzyme activity; single‐dose duplicate mode at 0.5 μM; read-out: Enzyme % activity (relative to DMSO controls) at 0.5 µM, HDAC4. How it is done: The inhibitory profiles of 5b and 5f were evaluated against selected HDAC isoforms (HDAC1, HDAC3, HDAC4, HDAC8, and HDAC10) and PI3K isoforms (PI3Kδ, PI3Kγ, and PI3Kβ) at a fixed concentration of 0.5 µM (Table 3). […] While we explored the phenyl ring in the linker region to achieve selectivity for the HDAC6 isoform, we still observed HDAC class I inhibition. […] It is important to highlight that PI3Kδ is mainly expressed in hematopoietic system and plays roles in leukocyte signaling, T‐cell activation, and immune cell trafficking. FDA‐approved drug idelalisib is a selective PI3Kδ inhibitor in B‐cell malignancies; however, this drug is also related to disruption of the immune system, which can lead to immune manifestations, such as infections. In addition, while isoform‐selective PI3K inhibitors are well tolerated, pan‐inhibition of PI3K is less expected that compensatory mechanisms by the action of other PI3Ks can take place. Thus, a more balanced profile of PI3K inhibition can lead to an overall lack of toxicity of PI3K inhibitors.

Another assay has as its system class I HDAC (acetyl H3). Put plainly: Western blot, acetyl H3 in treated cells. The class given is cell-based. The note with it: LY2, JIMT1, MDA‐MB‐231 cells, 24 h; seen at 10 µM. How it is done: FIGURE 4 Cell‐based evaluation of compounds 5a– 5f. Dose‐dependent effects of compound treatment (5a‐5f) on breast cancer cell viability across JIMT1 (A), MDA‐MB‐231 (B), and LY2 (C). Cell‐based evaluation of HDAC and PI3K inhibition by compounds 5b and 5f by Western blot. JIMT1 cells were treated for 24 h with compounds 5b (D) and 5f (E) at the concentrations of 1, 3, and 10 µM or with vehicle control (0.1% DMSO). Protein expression levels were analyzed by western blot using antibodies against acetylated α‐tubulin, acetyl H3 (H3K9Ac and H3K14Ac), phospho‐AKT (p‐AKT), and total AKT. GAPDH served as a loading control.
To investigate if 5b and 5f were acting as multitarget inhibitors, we evaluated the modulation of HDAC6 and PI3K signaling pathways by western blot analysis (Figure 4D,E). […]
Total protein samples were extracted from treated cells using a lysis buffer containing 0.1% IGEPAL CA‐630 (I8896, Merck), 0.5% deoxycholic acid (D2510, Merck), and 0.1% SDS (L3771, Merck), freshly supplemented with protease and phosphatase inhibitor cocktail (78442, Thermo Fisher Scientific). Protein concentrations were quantified using the Pierce BCA Protein Assay Kit (23227, Thermo Fisher Scientific) according to the manufacturer's instructions. […] Chemiluminescence signals were detected using the Amersham Imager 680 Imaging System. […]
In general terms: In western blotting, separated proteins are transferred to a membrane and probed.

Each structure is given as a SMILES string. Some results are limits rather than exact numbers.

Chain of HDAC4 (P56524 whole entry, canonical isoform): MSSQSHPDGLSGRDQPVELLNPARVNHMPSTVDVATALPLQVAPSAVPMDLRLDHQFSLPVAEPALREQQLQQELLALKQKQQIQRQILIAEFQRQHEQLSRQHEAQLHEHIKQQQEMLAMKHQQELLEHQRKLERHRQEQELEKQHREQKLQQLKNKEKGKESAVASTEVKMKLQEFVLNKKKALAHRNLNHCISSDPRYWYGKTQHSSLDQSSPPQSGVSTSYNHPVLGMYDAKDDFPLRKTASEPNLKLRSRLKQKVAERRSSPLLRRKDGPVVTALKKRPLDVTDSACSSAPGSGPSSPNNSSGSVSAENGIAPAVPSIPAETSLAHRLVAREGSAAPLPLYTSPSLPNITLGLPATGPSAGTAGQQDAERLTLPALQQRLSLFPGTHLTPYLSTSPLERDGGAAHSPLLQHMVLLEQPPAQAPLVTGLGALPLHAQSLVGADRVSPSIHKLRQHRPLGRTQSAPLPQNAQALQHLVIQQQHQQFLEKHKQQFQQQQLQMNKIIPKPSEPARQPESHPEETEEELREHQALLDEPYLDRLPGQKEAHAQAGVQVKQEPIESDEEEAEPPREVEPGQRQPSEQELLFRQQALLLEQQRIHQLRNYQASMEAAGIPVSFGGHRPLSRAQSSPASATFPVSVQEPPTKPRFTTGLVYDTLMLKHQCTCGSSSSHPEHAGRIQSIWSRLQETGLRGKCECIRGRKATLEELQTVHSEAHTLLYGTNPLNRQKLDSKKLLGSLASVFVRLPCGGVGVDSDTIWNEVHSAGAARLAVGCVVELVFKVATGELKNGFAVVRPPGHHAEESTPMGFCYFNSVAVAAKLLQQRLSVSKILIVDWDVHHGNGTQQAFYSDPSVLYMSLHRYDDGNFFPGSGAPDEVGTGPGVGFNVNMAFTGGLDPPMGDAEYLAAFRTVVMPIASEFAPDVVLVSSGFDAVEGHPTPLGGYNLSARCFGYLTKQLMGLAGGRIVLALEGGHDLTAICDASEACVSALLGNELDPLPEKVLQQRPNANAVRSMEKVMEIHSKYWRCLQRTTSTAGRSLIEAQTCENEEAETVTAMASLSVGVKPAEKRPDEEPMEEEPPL

For `COc1ccc(-c2nc(NCc3ccc(C(=O)NO)cc3)nc(N3CCOCC3)n2)cn1` [Compound 5f, N‐Hydroxy‐4‐(((4‐(6‐Methoxypyridin‐3‐yl)‐6‐Morpholino‐1,3,5‐Triazin‐2‐yl)Amino)Methyl)Benzamide], the IC50 is below 5 µM in assay [1] (Homo sapiens, MDA-MB-231, 72 h) and 3.3 ± 0.13 µM in assay [1]. Besides, the remaining activity at 0.5 µM on HDAC4 was 98.4%. In addition, in the assay with class I HDAC (acetyl H3), the “Acetylation of H3, western blot” value was “increased levels of acetylation of H3”.
For `O=C(NO)c1ccc(CNc2nc(-c3cccc(O)c3)nc(N3CCOCC3)n2)cc1` [Compound 5b, N‐Hydroxy‐4‐(((4‐(3‐Hydroxyphenyl)‐6‐Morpholino‐1,3,5‐Triazin‐2‐yl)Amino)Methyl)Benzamide], the concentration for half-maximal inhibition (IC50) in assay [1] (Homo sapiens, MDA-MB-231, 72 h) was below 5 µM; in assay [1] it was 4.4 ± 0.54 µM. Further, the remaining activity at 0.5 µM on HDAC4 was 89%. Moreover, the “Acetylation of H3, western blot” value in the assay on class I HDAC (acetyl H3) is “increased levels of acetylation of H3”.

The term IC50 denotes the concentration needed to halve the response being measured.
